Patent US20250270180A1, “MEK INHIBITORS AND THERAPEUTIC USES THEREOF” (Immuneering Corporation, priority 2020, published 2025)
Where “and” joins values, the source holds several entries; their conditions need not be identical. Equal values may be shown once.

Tests used:
[1] = Metabolite ID study, mouse hepatocytes; assay type: in vitro ADME; settings: 10 uM compound 9, T=60 min
Protocol: (§1) Animal Studies: Compound 9 was tested using six species hepatocytes in a metabolite ID study (T=60 min).
(§2) Cryopreserved hepatocytes from a selected species were thawed and incubated in duplicate with 10 uM compound 9 in Krebs-Henseleit buffer. […] Viability of hepatocytes was >70% after thawing.
(§3) (Eppendorf 5804R). […] The disappearance of the parent compound was determined, and the formation of metabolites was evaluated. Metabolites present at >1% of total compound related material (based on peak area) were identified by interpretation of the LC-MS/MS data.
(§4) MS settings were optimized for the flow rate. Full scan spectra were acquired in combination with data dependent MS2.
(§5) The spectra obtained from all samples were screened for the presence of m/z values that are absent in the blank incubations (incubations with hepatocytes without compound and with vehicle control, and incubations of compound in buffer without hepatocytes). T=60 min incubations were used as an initial screening. All possible metabolites observed were semi-quantified by MS response (peak area). MS2 spectra were interpreted to determine possible location of the metabolism reaction. The presence of metabolites identified was compared across the selected species.

[2] = system: A549 pERK; assay: A549-pERK, 2 h (quantitative Western, Jess); assay type: cell-based; settings: Homo sapiens, A549, 2 h, phospho:total ratio normalized to DMSO control
Procedure, shortened: (§6)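 Cells treated in duplicate for 2 h with compound, lysed and protein-normalised (1 mg/mL pERK, 1.5 mg/mL pMEK). Quantitative capillary Western; phospho/total protein ratio normalised to DMSO.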

[3] = system: A549 pMEK:tMEK (CRAF); assay: CRAF-bypass pMEK:tMEK, A549; assay type: cell-based
Protocol: Materials and Methods: A549 or A375 cells were seeded in 6-well plates at an appropriate seeding density on day 0. On day 2 or 3, after checking the health and confluency of cells, the media was aspirated and replaced with 1 mL media containing a predetermined concentration of compound and incubated for 2 hours. After 2 hours, the media was aspirated, and the cells washed 2 times with cold PBS. Cells were lysed on ice, with 50 uL 1×CST lysis buffer+1 mM PMSF for 5 minutes. After 5 minutes, cells were removed using a scraper and transferred to cold 1.5 mL tubes, and centrifuged for 10 min, 4° C., 14,000×g. Supernatant was gently removed and snap frozen in liquid nitrogen. Protein concentration of the lysate was determined using Bradford Reagent (analyzed using SpectraMax M2E) and diluted to 1 mg/mL or pERK or 1.5 mg/mL for pMEK analysis. Cell lysates were then analyzed for phosphor-ERK/total-ERK levels on a Jess system (ProteinSimple; Cat #JS3346) using the following antibodies: tERK1/2 (CST 4696; 1:50) and pERK1/2 (CST 4377; 1:50). […]
A549 or […] cells were treated in duplicate for two hours with compounds at varying concentrations. […] After storage, the lysate was quantified with the Bradford assay. Before the lysates were prepared to run on the Jess, the lysates were diluted to 1 mg/mL for pERK analysis and 1.5 mg/mL pMEK analysis using quantitative Western blotting. […]

[4] = system: A375 pERK:tERK; assay: Cell-based pERK:tERK, A375
Protocol: Materials and Methods: A549 or A375 cells were seeded in 6-well plates at an appropriate seeding density on day 0. On day 2 or 3, after checking the health and confluency of cells, the media was aspirated and replaced with 1 mL media containing a predetermined concentration of compound and incubated for 2 hours. After 2 hours, the media was aspirated, and the cells washed 2 times with cold PBS. Cells were lysed on ice, with 50 uL 1×CST lysis buffer+1 mM PMSF for 5 minutes. After 5 minutes, cells were removed using a scraper and transferred to cold 1.5 mL tubes, and centrifuged for 10 min, 4° C., 14,000×g. Supernatant was gently removed and snap frozen in liquid nitrogen. Protein concentration of the lysate was determined using Bradford Reagent (analyzed using SpectraMax M2E) and diluted to 1 mg/mL or pERK or 1.5 mg/mL for pMEK analysis. […] All dilutions were in Milk-free antibody diluent.

[5] = Metabolite ID study, monkey hepatocytes; assay type: in vitro ADME; settings: 10 uM compound 9, T=60 min
Protocol: as §1, §2, §3, §4, §5

[6] = system: A549 (KRAS G12S) pERK: total ERK; assay: Phospho-ERK screen in A549 (KRAS G12S); assay type: cell-based; settings: 10 μM for 2 hours
Protocol: Materials and Methods: A549 or A375 cells were seeded in 6-well plates at an appropriate seeding density on day 0. On day 2 or 3, after checking the health and confluency of cells, the media was aspirated and replaced with 1 mL media containing a predetermined concentration of compound and incubated for 2 hours. After 2 hours, the media was aspirated, and the cells washed 2 times with cold PBS. Cells were lysed on ice, with 50 uL 1×CST lysis buffer+1 mM PMSF for 5 minutes. After 5 minutes, cells were removed using a scraper and transferred to cold 1.5 mL tubes, and centrifuged for 10 min, 4° C., 14,000×g. Supernatant was gently removed and snap frozen in liquid nitrogen. Protein concentration of the lysate was determined using Bradford Reagent (analyzed using SpectraMax M2E) and diluted to 1 mg/mL or pERK or 1.5 mg/mL for pMEK analysis. Cell lysates were then analyzed for phosphor-ERK/total-ERK levels on a Jess system (ProteinSimple; Cat #JS3346) using the following antibodies: tERK1/2 (CST 4696; 1:50) and pERK1/2 (CST 4377; 1:50). For pMEK/tMEK, the following antibodies were used: tMEK1/2 (CST 4694; 1:15) and pMEK1/2 (CST 9154; 1:400). All dilutions were in Milk-free antibody diluent.
The results of a phospho-ERK Screen in A549 (KRAS G12S) study is described in Table 7, 7A, 7B, and 8 below.

[7] = system: A549 CRAF BP (MEK phosphorylation); assay: A549-CRAF BP 100 nM, 2 h (pMEK); assay type: cell-based; settings: Homo sapiens, A549, 2 h, phospho:total ratio normalized to DMSO control
Procedure, shortened: as §6

Structure (SMILES): CNS(=O)(=O)Nc1cccc(Cc2c(CN(C)C)c3ccc(OC(=O)N(C)C)cc3oc2=O)c1F [Compound 9]
- % of total compound related material based on peak area, Mouse [1]: 97%
- activity at 0.01 µM ([2]; 10 nM): 63%
- activity at 10 µM ([2]; 10 uM): 1.21%
- CRAF A549 pMEK:tMEK [100 nM; 2 hr] [3]: 0.47
- A375 pERK:tERK ratio [10 nM; 2 hr] [4]: 0.71
- % of total compound related material based on peak area, Monkey [5]: 95%
- pERK: total ERK (% relative to vehicle) [6]: 0.60% and 1.81%
- activity at 0.1 µM [7]: 44.9%
